In US20250179017A1 (GUANGDONG NEWOPP BIOPHARMACEUTICALS CO., LTD., priority 2022, published 2025):

Each molecule was assayed against T1, human EP2 (PTGER2) (Homo sapiens, UniProt P43116) (assay: EP2 antagonist assay (HEK-293 CNG membrane potential cAMP assay / 293T SEAP reporter assay, PGE2-stimulated)). Settings: EP2 antagonist activity; concentration for 50% inhibition of signal compared to DMSO.
T1 construct: Cayman Chemical (Human EP2 Reporter Assay Kit)
Format: cell-based
Outline: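 HEK-293 CNG cells expressing human EP2: compound preincubated 15 min at RT, then PGE2 at 5 nM final, 30 min; membrane-potential dye fluorescence (ex 530, em 590 nm), background-subtracted, gave IC50. Alternatively, 293T cells reverse-transfected with EP2 and CRE-SEAP, compound plus 13 nM PGE2 for 6-8 h, SEAP luminescence.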

T1 sequence (P43116 whole entry): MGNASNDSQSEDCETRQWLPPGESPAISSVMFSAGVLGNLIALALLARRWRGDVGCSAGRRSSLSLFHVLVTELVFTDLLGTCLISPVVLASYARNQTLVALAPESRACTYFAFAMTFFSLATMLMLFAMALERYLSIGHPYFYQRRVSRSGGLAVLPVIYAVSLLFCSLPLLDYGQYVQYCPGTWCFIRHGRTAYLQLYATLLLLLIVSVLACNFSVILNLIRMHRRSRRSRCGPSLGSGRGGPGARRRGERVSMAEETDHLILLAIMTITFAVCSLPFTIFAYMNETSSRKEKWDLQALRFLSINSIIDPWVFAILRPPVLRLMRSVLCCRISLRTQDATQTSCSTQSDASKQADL

| IC50 | SMILES |
| --- | --- |
| < 100 nM | C[C@H](NC(=O)c1cc(-c2ccc(F)c(F)c2)cc2ccn(Cc3ccc(C(F)(F)F)cc3)c12)c1ccc(C(=O)O)cc1 [Example 53] |
| < 100 nM | C[C@H](NC(=O)c1cc(-c2cc(F)cc(F)c2)cc2ccn(Cc3ccc(C(F)(F)F)cc3)c12)c1ccc(C(=O)O)cc1 [Example 54, (S)-4-(1-(5-(3,5-difluorophenyl)-1-(4-(trifluoromethyl)benzyl)-1H-indole-7-carboxamido)ethyl) benzoic acid] |
| ≥ 1000 nM | O=C(O)c1ccc(CNC(=O)c2ccc(N3CCOCC3)c3ccn(Cc4ccc(C(F)(F)F)cc4)c23)cc1 [Example 58, 4-((4-morpholino-1-(4-(trifluoromethyl)benzyl)-1H-indole-7-carboxamido)methyl)benzoic acid] |
| ≥ 1000 nM | CN1CCN(c2ccc(C(=O)NCc3ccc(C(=O)O)cc3)c3c2ccn3Cc2ccc(C(F)(F)F)cc2)CC1 [Example 59, 4-((4-(4-methylpiperazin-1-yl)-1-(4-(trifluoromethyl)benzyl)-1H-indole-7-carboxamido)methyl)benzoic acid] |
| 100 to 1000 nM | N#Cc1cccc(Nc2ccc(C(=O)NC3(c4ccc(C(=O)O)cc4)CC3)c3c2ccn3Cc2ccc(C(F)(F)F)cc2)c1 [Example 61, 4-(1-(4-((3-cyanophenyl)amino)-1-(4-(trifluoromethyl)benzyl)-1H-indole-7-carboxamido)cyclopropyl)benzoic acid] |
| ≥ 1000 nM | N#Cc1ccc(Nc2ccc(C(=O)NC3(c4ccc(C(=O)O)cc4)CC3)c3c2ccn3Cc2ccc(C(F)(F)F)cc2)cc1 [Example 62, 4-(1-(4-((4-cyanophenyl)amino)-1-(4-(trifluoromethyl)benzyl)-1H-indole-7-carboxamido)cyclopropyl)benzoic acid] |
| 100 to 1000 nM | O=C(O)c1ccc(C2(NC(=O)c3ccc(Nc4ccc(F)c(F)c4)c4ccn(Cc5ccc(C(F)(F)F)cc5)c34)CC2)cc1 [Example 63, 4-(1-(4-((3,4-difluorophenyl)amino)-1-(4-(trifluoromethyl)benzyl)-1H-indole-7-carboxamido)cyclopropyl)benzoic acid] |
| < 100 nM | O=C(O)c1ccc(C2(NC(=O)c3ccc(Nc4ccc(F)cc4)c4ccn(Cc5ccc(C(F)(F)F)cc5)c34)CC2)cc1 [Example 64, 4-(1-(4-((4-fluorophenyl)amino)-1-(4-(trifluoromethyl)benzyl)-1H-indole-7-carboxamido)cyclopropyl)benzoic acid] |
| 100 to 1000 nM | O=C(O)c1ccc(C2(NC(=O)c3ccc(Nc4ccc(F)c(Cl)c4)c4ccn(Cc5ccc(C(F)(F)F)cc5)c34)CC2)cc1 [Example 65, 4-(1-(4-((3-chloro-4-fluorophenyl)amino)-1-(4-(trifluoromethyl)benzyl)-1H-indole-7-carboxamido)cyclopropyl)benzoic acid] |
| 100 to 1000 nM | O=C(O)c1ccc(C2(NC(=O)c3ccc(Nc4cc(F)cc(F)c4)c4ccn(Cc5ccc(C(F)(F)F)cc5)c34)CC2)cc1 [Example 66, 4-(1-(4-((3,5-difluorophenyl)amino)-1-(4-(trifluoromethyl)benzyl)-1H-indole-7-carboxamido)cyclopropyl)benzoic acid] |
| < 100 nM | O=C(O)c1ccc(C2(NC(=O)c3ccc(Nc4cccc(F)c4)c4ccn(Cc5ccc(C(F)(F)F)cc5)c34)CC2)cc1 [Example 67, 4-(1-(4-((3-fluorophenyl)amino)-1-(4-(trifluoromethyl)benzyl)-1H-indole-7-carboxamido)cyclopropyl)benzoic acid] |
| < 100 nM | N#Cc1cccc(Nc2ccc(C(=O)NCc3ccc(C(=O)O)cc3)c3c2ccn3Cc2ccc(C(F)(F)F)cc2)c1 [Example 68, 4-((4-((3-cyanophenyl)amino)-1-(4-(trifluoromethyl)benzyl)-1H-indole-7-carboxamido)methyl)benzoic acid] |
| < 100 nM | O=C(O)c1ccc(CNC(=O)c2ccc(Nc3ccc(F)c(Cl)c3)c3ccn(Cc4ccc(C(F)(F)F)cc4)c23)cc1 [Example 70] |
| 100 to 1000 nM | O=C(O)c1ccc(CNC(=O)c2ccc(Nc3ccc(Cl)c(F)c3)c3ccn(Cc4ccc(C(F)(F)F)cc4)c23)cc1 [Example 71, ((4-((4-chloro-3-fluorophenyl)amino)-1-(4-(trifluoromethyl)benzyl)-1H-indole-7-carboxamido)methyl)benzoic acid acid] |
| < 100 nM | O=C(O)c1ccc(CNC(=O)c2ccc(Nc3cccc(F)c3)c3ccn(Cc4ccc(C(F)(F)F)cc4)c23)cc1 [Example 72, 4-((4-((3-fluorophenyl)amino)-1-(4-(trifluoromethyl)benzyl)-1H-indole-7-carboxamido)methyl)benzoic acid] |
| 100 to 1000 nM | O=C(O)c1ccc(CNC(=O)c2ccc(Nc3ccc(Cl)cc3)c3ccn(Cc4ccc(C(F)(F)F)cc4)c23)cc1 [Example 73, ((4-((4-chlorophenyl)amino)-1-(4-(trifluoromethyl)benzyl)-1H-indole-7-carboxamido)methyl)benzoic acid] |

| IC50 | SMILES |
| --- | --- |
| < 100 nM | O=C(O)c1ccc(CNC(=O)c2cc(-c3cccc(Cl)c3)cc3ccn(Cc4ccc(C(F)(F)F)cc4)c23)cc1 [Example 75, 4-((5-(3-chlorophenyl)-1-(4-(trifluoromethyl)benzyl)-1H-indole-7-carboxamido)methyl)benzoic acid] |
| 100 to 1000 nM | N#Cc1cc(-c2cc(C(=O)NCc3ccc(C(=O)O)cc3)c3c(ccn3Cc3ccc(C(F)(F)F)cc3)c2)ccc1F [Example 79, 4-((5-(3-cyano-4-fluorophenyl)-1-(4-(trifluoromethyl)benzyl)-1H-indole-7-carboxamido)methyl)benzoic] |
| < 100 nM | N#Cc1ccc(-c2cc(C(=O)NCc3ccc(C(=O)O)cc3)c3c(ccn3Cc3ccc(C(F)(F)F)cc3)c2)cc1 [Example 81, 4-((5-(4-cyanophenyl)-1-(4-(trifluoromethyl)benzyl)-1H-indole-7-carboxamido)methyl)benzoic acid] |
| < 100 nM | NC(=O)c1cccc(-c2cc(C(=O)NCc3ccc(C(=O)O)cc3)c3c(ccn3Cc3ccc(C(F)(F)F)cc3)c2)c1 [Example 82, 4-((5-(3-carbamoylphenyl)-1-(4-(trifluoromethyl)benzyl)-1H-indole-7-carboxamido)methyl)benzoic acid] |
| < 100 nM | NS(=O)(=O)c1cccc(-c2cc(C(=O)NCc3ccc(C(=O)O)cc3)c3c(ccn3Cc3ccc(C(F)(F)F)cc3)c2)c1 [Example 83, 4-((5-(3-sulfamoylphenyl)-1-(4-(trifluoromethyl)benzyl)-1H-indole-7-carboxamido)methyl)benzoic acid] |
| < 100 nM | CS(=O)(=O)c1cccc(-c2cc(C(=O)NCc3ccc(C(=O)O)cc3)c3c(ccn3Cc3ccc(C(F)(F)F)cc3)c2)c1 [Example 84, 4-((5-(3-(methylsulfonyl)phenyl)-1-(4-(trifluoromethyl)benzyl)-1H-indole-7-carboxamido)methyl)benzoic acid] |
| < 100 nM | O=C(O)c1ccc(CNC(=O)c2cc(-c3ccccc3O)cc3ccn(Cc4ccc(C(F)(F)F)cc4)c23)cc1 [Example 86, 4-((5-(2-hydroxyphenyl)-1-(4-(trifluoromethyl)benzyl)-1H-indole-7-carboxamido)methyl)benzoic acid] |
| 100 to 1000 nM | O=C(O)c1ccc(CNC(=O)c2cc(-c3cc(Cl)cc(Cl)c3)cc3ccn(Cc4ccc(C(F)(F)F)cc4)c23)cc1 [Example 88, 4-((5-(3,5-dichlorophenyl)-1-(4-(trifluoromethyl)benzyl)-1H-indole-7-carboxamido)methyl)benzoic acid] |
| 100 to 1000 nM | O=C(O)c1ccc(CNC(=O)c2cc(-c3ccccc3C(F)(F)F)cc3ccn(Cc4ccc(C(F)(F)F)cc4)c23)cc1 [Example 89, 4-((1-(4-(trifluoromethyl)benzyl)-5-(2-(trifluoromethyl)phenyl)-1H-indole-7-carboxamido)methyl)benzoic acid] |
| < 100 nM | O=C(O)c1ccc(CNC(=O)c2cc(-c3ccccc3Cl)cc3ccn(Cc4ccc(C(F)(F)F)cc4)c23)cc1 [Example 90, 4-((5-(2-chlorophenyl)-1-(4-(trifluoromethyl)benzyl)-1H-indole-7-carboxamido)methyl)benzoic acid] |
| < 100 nM | O=C(O)c1ccc(CNC(=O)c2cc(-c3ccc(Cl)c(F)c3)cc3ccn(Cc4ccc(C(F)(F)F)cc4)c23)cc1 [Example 91, 4-((5-(4-chloro-3-fluorophenyl)-1-(4-(trifluoromethyl)benzyl)-1H-indole-7-carboxamido)methyl)benzoic] |
| < 100 nM | Cc1ccccc1-c1cc(C(=O)NCc2ccc(C(=O)O)cc2)c2c(ccn2Cc2ccc(C(F)(F)F)cc2)c1 [Example 92, 4-((5-(o-tolyl)-1-(4-(trifluoromethyl)benzyl)-1H-indole-7-carboxamido)methyl)benzoic acid] |
| 100 to 1000 nM | Nc1ccccc1-c1cc(C(=O)NCc2ccc(C(=O)O)cc2)c2c(ccn2Cc2ccc(C(F)(F)F)cc2)c1 [Example 93, 4-((5-(2-aminophenyl)-1-(4-(trifluoromethyl)benzyl)-1H-indole-7-carboxamido)methyl)benzoic acid] |
| < 100 nM | O=C(O)c1ccc(CNC(=O)c2cc(-c3ccc(F)c(Cl)c3)cc3ccn(Cc4ccc(C(F)(F)F)cc4)c23)cc1 [Example 94, 4-((5-(3-chloro-4-fluorophenyl)-1-(4-(trifluoromethyl)benzyl)-1H-indole-7-carboxamido)methyl)benzoic] |
| < 100 nM | O=C(O)c1ccc(CNC(=O)c2cc(-c3cc(F)cc(Cl)c3)cc3ccn(Cc4ccc(C(F)(F)F)cc4)c23)cc1 [Example 95, 4-((5-(3-chloro-5-fluorophenyl)-1-(4-(trifluoromethyl)benzyl)-1H-indole-7-carboxamido)methyl)benzoic acid] |
| < 100 nM | N#Cc1cccc(-c2cc(C(=O)NCc3ccc(C(=O)O)cc3)c3c(cnn3Cc3ccc(C(F)(F)F)cc3)c2)c1 [Example 98, 4-((5-(3-cyanophenyl)-1-(4-(trifluoromethyl)benzyl)-1H-indazole-7-carboxamido)methyl)benzoic acid] |
